Experimental data from patent publication US7998995B2 (Exelixis Patent Company LLC, priority 2006, dated 2011).

Each compound was assayed on T1, LXR (assay: Measured EC50 or IC50 for LXR (LXRα and/or LXRβ; assay and subtype not given)). Conditions: IC50 or EC50 class, subtype not specified.
T1 construct: fused on or other part: GST fused to the LBD in the FRET assay
Experimental: Measured EC50 or IC50 for LXR, and FXR for Compounds of the Invention
LXR and FXR activities for various compounds of the invention are presented in the following table; those compounds with EC50 or IC50 values <10 μM for at least one of LXRα, LXRβ or FXR are considered to be active. In the following Table, IC50 or EC50 data is represented as follows: A<1 μM, B=1-10 μm, and C>10 μM.
In the case of `O=C(OCc1ccccc1)c1ccc(OCc2cc(C(F)(F)F)nn2-c2ccccc2Cl)cc1` [Example 7, phenylmethyl 4-({[1-(2-chlorophenyl)-3-(trifluoromethyl)-1H-pyrazol-5-yl]methyl}oxy)benzoate], the EC50 is reported as over 10 µM. In the case of `FC(F)(F)c1cc(COc2ccc(-n3cccc3)cc2)n(-c2ccccc2Cl)n1` [Example 8, 1-(2-chlorophenyl)-5-({[4-(1H-pyrrol-1-yl)phenyl]oxy}methyl)-3-(trifluoromethyl)-1H-pyrazole], the EC50 is reported as under 1 µM. `O=C(O)c1cc2cc(OCc3cc(C(F)(F)F)nn3-c3ccccc3Cl)ccc2[nH]1` [Example 9, 5-({[1-(2-chlorophenyl)-3-(trifluoromethyl)-1H-pyrazol-5-yl]methyl}oxy)-1H-indole-2-carboxylic acid] gave an EC50 of over 10 µM. With `CCOC(=O)c1cc2cc(OCc3cc(C(F)(F)F)nn3-c3ccccc3Cl)ccc2[nH]1` [Example 38, ethyl 5-({[1-(2-chlorophenyl)-3-(trifluoromethyl)-1H-pyrazol-5-yl]methyl}oxy)-1H-indole-2-carboxylate] the EC50 was over 10 µM. In the case of `CC(C)(C(=O)O)c1cccc(-c2ccc(OCc3cc(C(F)(F)F)nn3-c3ccccc3Cl)cc2)c1` [Example 92, 2-[4′-({[1-(2-chlorophenyl)-3-(trifluoromethyl)-1H-pyrazol-5-yl]methyl}oxy)biphenyl-3-yl]-2-methylpropanoic acid], the EC50 is reported as 1 to 10 µM. Work on `O=C(O)Cc1cccc(-c2ccc(OCc3cc(C(F)(F)F)nn3-c3ccccc3Cl)cc2)c1` [Example 93, [4′-({[1-(2-chlorophenyl)-3-(trifluoromethyl)-1H-pyrazol-5-yl]methyl}oxy)biphenyl-3-yl]acetic acid] yielded an EC50 of over 10 µM. Work on `O=C(Oc1cccc(OCc2cc(C(F)(F)F)nn2-c2ccccc2Cl)c1)c1ccccc1` [Example 95, 3-({[1-(2-chlorophenyl)-3-(trifluoromethyl)-1H-pyrazol-5-yl]methyl}oxy)phenyl benzoate] yielded an EC50 of over 10 µM. `O=C(O)Cc1ccc(-c2ccc(OCc3cc(C(F)(F)F)nn3-c3ccccc3Cl)cc2)cc1` [Example 98, [4′-({[1-(2-chlorophenyl)-3-(trifluoromethyl)-1H-pyrazol-5-yl]methyl}oxy)biphenyl-4-yl]acetic acid] showed an EC50 of over 10 µM. `CS(=O)(=O)c1cccc(NC(=O)c2cc(C(F)(F)F)nn2-c2cc(Cl)ccc2Cl)c1` [Example 99, 1-(2,5-dichlorophenyl)-N-[3-(methylsulfonyl)phenyl]-3-(trifluoromethyl)-1H-pyrazole-5-carboxamide] showed an EC50 of over 10 µM. For `O=C(NCc1cccc(C(F)(F)F)c1)c1cc(C(F)(F)F)nn1-c1cc(Cl)ccc1Cl` [Example 100, 1-(2,5-dichlorophenyl)-3-(trifluoromethyl)-N-{[3-(trifluoromethyl)phenyl]methyl}-1H-pyrazole-5-carboxamide], the EC50 was over 10 µM. Work on `CS(=O)(=O)c1ccc(CNC(=O)c2cc(C(F)(F)F)nn2-c2cc(Cl)ccc2Cl)cc1` [Example 101, 1-(2,5-dichlorophenyl)-N-{[4-(methylsulfonyl)phenyl]methyl}-3-(trifluoromethyl)-1H-pyrazole-5-carboxamide] yielded an EC50 of over 10 µM. `O=C(NCc1cccc(Cl)c1)c1cc(C(F)(F)F)nn1-c1cc(Cl)ccc1Cl` [Example 102, N-[(3-chlorophenyl)methyl]-1-(2,5-dichlorophenyl)-3-(trifluoromethyl)-1H-pyrazole-5-carboxamide] gave an EC50 of over 10 µM. In the case of `CS(=O)(=O)c1cccc(CNC(=O)c2cc(C(F)(F)F)nn2-c2ccccc2Cl)c1` [Example 103, 1-(2-chlorophenyl)-N-{[3-(methylsulfonyl)phenyl]methyl}-3-(trifluoromethyl)-1H-pyrazole-5-carboxamide], the EC50 is reported as over 10 µM. Compound `CC(C)Oc1ccccc1-n1nc(C(F)(F)F)cc1C(=O)NCc1cccc(C(F)(F)F)c1` [Example 104, 1-{2-[(1-methylethyl)oxy]phenyl}-3-(trifluoromethyl)-N-{[3-(trifluoromethyl)phenyl]methyl}-1H-pyrazole-5-carboxamide] has an EC50 of over 10 µM. `CC(=O)c1cccc(NC(=O)Nc2cc(C(F)(F)F)nn2-c2ccccc2C(F)(F)F)c1` [Example 105, N-(3-acetylphenyl)-N′-{3-(trifluoromethyl)-1-[2-(trifluoromethyl)phenyl]-1H-pyrazol-5-yl}urea] gave an EC50 of over 10 µM. `O=C(NCc1cccc(C(F)(F)F)c1)c1cc(C(F)(F)F)nn1-c1ccccc1Cl` [Example 106, 1-(2-chlorophenyl)-3-(trifluoromethyl)-N-{[3-(trifluoromethyl)phenyl]methyl}-1H-pyrazole-5-carboxamide] showed an EC50 of over 10 µM. Work on `NS(=O)(=O)c1cccc(C#Cc2cc(C(F)(F)F)nn2-c2ccccc2Cl)c1` [Example 107, 3-{[1-(2-chlorophenyl)-3-(trifluoromethyl)-1H-pyrazol-5-yl]ethynyl}benzenesulfonamide] yielded an EC50 of 1 to 10 µM. `CS(=O)(=O)c1cccc(C#Cc2cc(C(F)(F)F)nn2-c2ccccc2Cl)c1` [Example 108, 1-(2-chlorophenyl)-5-{[3-(methylsulfonyl)phenyl]ethynyl}-3-(trifluoromethyl)-1H-pyrazole] gave an EC50 of under 1 µM. In the case of `CS(=O)(=O)c1ccc(C#Cc2cc(C(F)(F)F)nn2-c2ccccc2Cl)cc1` [Example 109, 1-(2-chlorophenyl)-5-{[4-(methylsulfonyl)phenyl]ethynyl}-3-(trifluoromethyl)-1H-pyrazole], the EC50 is reported as under 1 µM. Work on `CS(=O)(=O)Cc1ccc(C#Cc2cc(C(F)(F)F)nn2-c2ccccc2Cl)cc1` [Example 110, 1-(2-chlorophenyl)-5-({4-[(methylsulfonyl)methyl]phenyl}ethynyl)-3-(trifluoromethyl)-1H-pyrazole] yielded an EC50 of 1 to 10 µM. For `FC(F)(F)c1cc(COc2ccc(-c3ccccc3)cc2)n(-c2ccccc2Cl)n1` [Example 111, 5-[(biphenyl-4-yloxy)methyl]-1-(2-chlorophenyl)-3-(trifluoromethyl)-1H-pyrazole], the EC50 was 1 to 10 µM. `CS(=O)(=O)c1cccc(-c2ccc(OCc3nc(C(F)(F)F)cn3-c3c(Cl)cccc3Cl)cc2)c1` [Example 114, 1-(2,6-dichlorophenyl)-2-({[3′-(methylsulfonyl)biphenyl-4-yl]oxy}methyl)-4-(trifluoromethyl)-1H-imidazole] was tested, and the EC50 was under 1 µM. Work on `CS(=O)(=O)c1cccc(-c2ccc(COc3cc(C(F)(F)F)nn3-c3c(Cl)cccc3Cl)cc2)c1` [Example 116, 1-(2,6-dichlorophenyl)-5-({[3′-(methylsulfonyl)biphenyl-4-yl]methyl}oxy)-3-(trifluoromethyl)-1H-pyrazole] yielded an EC50 of under 1 µM. Compound `CS(=O)(=O)c1cccc(-c2ccc(COc3cc(C(F)(F)F)nn3-c3c(Cl)cccc3Cl)c(F)c2)c1` [Example 117, 1-(2,6-dichlorophenyl)-5-({[3-fluoro-3′-(methylsulfonyl)biphenyl-4-yl]methyl}oxy)-3-(trifluoromethyl)-1H-pyrazole] has an EC50 of under 1 µM. Compound `CS(=O)(=O)c1cccc(NC(=O)c2cc(C(F)(F)F)nn2-c2ccccc2Cl)c1` [Example 611, 1-(2-chlorophenyl)-N-[3-(methylsulfonyl)phenyl]-3-(trifluoromethyl)-1H-pyrazole-5-carboxamide] has an EC50 of over 10 µM. `CS(=O)(=O)c1cccc(-c2ccc(OCc3cc(C(F)(F)F)nn3-c3c(Cl)cccc3Cl)cc2)c1` [Example 891, 1-(2,6-dichlorophenyl)-5-((3′-(methylsulfonyl)biphenyl-4-yloxy)methyl)-3-(trifluoromethyl)-1H-pyrazole] showed an EC50 of under 1 µM. `CS(=O)(=O)c1cccc(-c2ccc(OCc3cc(C(F)(F)F)nn3-c3ccccc3Cl)c(Cl)c2)c1` [Example 908, 5-({[3-chloro-3′-(methylsulfonyl)biphenyl-4-yl]oxy}methyl)-1-(2-chlorophenyl)-3-(trifluoromethyl)-1H-pyrazole] was tested, and the EC50 was 1 to 10 µM. Compound `Cc1cc(-c2cccc(S(C)(=O)=O)c2)ccc1OCc1cc(C(F)(F)F)nn1-c1ccccc1Cl` [Example 909, 1-(2-chlorophenyl)-5-({[3-methyl-3′-(methylsulfonyl)biphenyl-4-yl]oxy}methyl)-3-(trifluoromethyl)-1H-pyrazole] has an EC50 of under 1 µM. Work on `Cc1cc(OCc2cc(C(F)(F)F)nn2-c2ccccc2Cl)ccc1-c1cccc(S(C)(=O)=O)c1` [Example 910, 1-(2-chlorophenyl)-5-({[2-methyl-3′-(methylsulfonyl)biphenyl-4-]oxy}methyl)-3-(trifluoromethyl)-1H-pyrazole] yielded an EC50 of 1 to 10 µM. For `CS(=O)(=O)c1cccc(-c2ccc(OCc3cc(C(F)(F)F)nn3-c3ccccc3Cl)cc2Cl)c1` [Example 911, 5-({[2-chloro-3′-(methylsulfonyl)biphenyl-4-yl]oxy}methyl)-1-(2-chlorophenyl)-3-(trifluoromethyl)-1H-pyrazole], the EC50 was under 1 µM. For `FC(F)(F)c1cc(COc2ccc(-n3cccc3)cc2)n(-c2c(Cl)cccc2Cl)n1` [Example 922, 1-(2,6-dichlorophenyl)-5-({[4-(1H-pyrrol-1-yl)phenyl]oxy}methyl)-3-(trifluoromethyl)-1H-pyrazole], the EC50 was under 1 µM. Compound `FC(F)(F)c1cc(COc2ccc(-n3ccnc3)cc2)n(-c2c(Cl)cccc2Cl)n1` [Example 923, 1-(2,6-dichlorophenyl)-5-({[4-(1H-imidazol-1-yl)phenyl]oxy}methyl)-3-(trifluoromethyl)-1H-pyrazole] has an EC50 of under 1 µM. Work on `FC(F)(F)c1cc(COc2ccc(-c3ccccc3)cc2)n(-c2c(Cl)cccc2Cl)n1` [Example 924, 5-[(biphenyl-4-yloxy)methyl]-1-(2,6-dichlorophenyl)-3-(trifluoromethyl)-1H-pyrazole] yielded an EC50 of 1 to 10 µM. In the case of `CS(=O)(=O)c1cccc(-c2ccc(OCc3cc(C(F)(F)F)nn3-c3ccccc3Cl)c(F)c2)c1` [Example 925, 1-(2-chlorophenyl)-5-({[3-fluoro-3′-(methylsulfonyl)biphenyl-4-yl]oxy}methyl)-3-(trifluoromethyl)-1H-pyrazole], the EC50 is reported as under 1 µM. `CS(=O)(=O)c1cccc(-c2ccc(OCc3cc(C(F)(F)F)nn3-c3ccccc3Cl)c(C#N)c2)c1` [Example 926, 4-({[1-(2-chlorophenyl)-3-(trifluoromethyl)-1H-pyrazol-5-yl]methyl}oxy)-3′-(methylsulfonyl)biphenyl-3-carbonitrile] gave an EC50 of 1 to 10 µM.
